{"source": "patent US12023341B2", "about": "“Platinum-acridine compounds and methods of treating cancers” (Wake Forest University, priority 2020, dated 2024)", "key": {"HCT-116 cells": {"test_system": "HCT-116 cells", "experiment": "Uptake of compound 1 after epigenetic drugs, confocal fluorescence microscopy", "assay_type": "cell-based, human", "details": "HCT-116, pre-screen of epigenetic drugs, alone or in combination", "procedure": "We first pre-screened several epigenetic drugs in cultured HCT-116 cells in a multi-well plate format for their ability to increase the uptake of compound 1 using confocal fluorescence microscopy. […] These compounds were then tested again at escalating doses (2.5-20 mM).\nConfocal fluorescence microscopy. Cells were seeded and allowed to attach overnight before any treatment. After cells were treated depend on purposes of different experiments, media was removed and dishes were rinsed 3 times with 1 mL of pre-warmed PBS buffer. Cells were then used fixed with 4% formaldehyde in PBS buffer for 15 minutes. Dishes were then washed an additional 3 times with 1 mL of pre-warmed PBS before imaging. Images were collected using a LSM 880 Confocal Microscope (Carl Zeiss Microscopy) using a 63X/1.4NA Plan-Apochromatic objective. The fluorescence of acridine was excited with a 405 nm (15 mW) laser at 4.4% and collected between 405-481 nm. To allow comparative fluorescence intensity analysis, excitation power, pinhole settings, PMT gain, and offset values across and within imaging sessions for each respective channel were not changed. The intensity of acridine-related fluorescence in treated cells was estimated by drawing a region of interest around each cell. A total of more than 100 individual cells across 3 views of 2 independent experiments were analyzed in this fashion. […]"}, "hMATE1": {"biological_target": "T1, hMATE1 (Homo sapiens, UniProt Q96FL8)", "T1 sequence (Q96FL8 1-570)": "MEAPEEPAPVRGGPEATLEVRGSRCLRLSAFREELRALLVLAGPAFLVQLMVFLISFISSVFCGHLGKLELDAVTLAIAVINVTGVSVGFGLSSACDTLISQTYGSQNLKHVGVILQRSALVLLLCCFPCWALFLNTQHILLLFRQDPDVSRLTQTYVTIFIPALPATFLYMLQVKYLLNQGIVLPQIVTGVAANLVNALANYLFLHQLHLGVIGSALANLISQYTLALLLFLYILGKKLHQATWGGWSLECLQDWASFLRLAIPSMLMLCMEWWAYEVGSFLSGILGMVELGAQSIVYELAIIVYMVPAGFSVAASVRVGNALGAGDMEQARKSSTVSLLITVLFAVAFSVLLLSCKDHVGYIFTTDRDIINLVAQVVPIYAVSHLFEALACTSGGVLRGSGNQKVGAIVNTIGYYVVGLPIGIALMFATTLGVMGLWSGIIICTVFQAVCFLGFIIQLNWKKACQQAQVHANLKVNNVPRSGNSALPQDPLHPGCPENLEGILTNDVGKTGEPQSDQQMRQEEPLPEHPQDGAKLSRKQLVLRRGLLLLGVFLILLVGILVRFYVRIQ", "details": "reported values; cited from earlier work"}}, "data": [{"smiles": "CS(=O)(=O)c1ccc(-c2cnc(NCc3ccco3)n3cnnc23)cc1", "note": "[EED226]", "values": [{"measurement": "uptake of compound 1 (acridine-associated blue fluorescence)", "setting": "HCT-116 cells", "result": "enhanced uptake of compound 1"}]}, {"smiles": "CCN(c1cc(-c2ccc(CN3CCOCC3)cc2)cc(C(=O)NCc2c(C)cc(C)[nH]c2=O)c1C)C1CCOCC1", "note": "[EPZ-6438]", "values": [{"measurement": "uptake of compound 1 (acridine-associated blue fluorescence)", "setting": "HCT-116 cells", "result": "enhanced uptake of compound 1"}]}, {"smiles": "CCc1nc(N)nc(N)c1-c1ccc(Cl)cc1", "note": "[pyrimethamine]", "values": [{"measurement": "Ki", "setting": "hMATE1", "result": "77 to 93", "unit": "nM"}]}]}
